Experimental data taken from patent US20230312601A1, “THIAZOLO[5,4-B]PYRIDINE MALT-1 INHIBITORS” (AbbVie Inc., priority 2022, published 2023).

Key:
[1] = target: human MALT-1 protein (Homo sapiens (Human), UniProt Q9UDY8); assay: MALT-1 Biochemical Assay (Quench-FRET enzyme assay); conditions: human MALT-1 6 nM, substrate 2 μM, 40 min preincubation
Summary of the method: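 Human MALT-1 (6 nM) preincubated 40 min at room temperature with compound in pH 7.5 HEPES buffer containing 0.8 M sodium citrate and 2 mM DTT. Then 2 μM quenched TAMRA/QSY7 peptide substrate added for 60 min. Cleavage read by fluorescence (Ex 535/Em 590); EC50 is half-maximal inhibition of protease activity.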

[2] = tested on: OCI-LY3 IL6; assay: MALT-1 Cell IL-6 AlphaLISA Assay; assay type: cell-based; conditions: Homo sapiens; OCI-LY3 cells, 48 hours incubation; read-out: OCI-LY3 IL6 48 hour Inhibition EC50
Summary of the method: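 MALT-1-dependent ABC-DLBCL OCI-LY3 cells were seeded at 50,000 cells/mL onto compound (30 μM to 1.5 nM) and incubated 48 hours at 37° C. Secreted human IL-6 in the medium was measured by AlphaLISA with acceptor beads, biotinylated anti-IL-6 antibody and streptavidin donor beads.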

[3] = tested on: CYP 3A4 mRNA; assay: CYP3A4 Induction Assay (qPCR, human hepatocytes); assay type: in vitro ADME; conditions: 10 μM compound, relative to rifampicin 10 μM
Description: (§1) CYP induction by compounds of the Examples was evaluated in vitro by determining the expression levels of CYP 3A4 mRNA using the qPCR (quantitative polymerase chain reaction) assay. On day one, cryopreserved human hepatocytes were thawed in prewarmed (37° C.) thawing medium (cryopreserved hepatocyte recovery medium, Gibco™ CM 7000; Thermo Fisher Scientific), centrifuged (1000 g for 10 minutes) and resuspended in plating medium (Gibco™ CM3000—Williams Medium E supplemented with hepatocytes plating supplement pak-serum containing; Thermo Fisher Scientific). Cells were counted by trypan blue exclusion using a hemocytometer and adjusted to a cell density of […]. Thereafter, […] of cell suspension was aliquoted per well in a 96-well plate, resulting in 60,000 cells/well. Plates were shaken in the north-south and east-west direction during plating. Plated cells were incubated at 37° C/5% CO2 in a humidified cell culture incubator for 4-6 hours. During this time, incubation medium (Gibco™ CM4000, cell maintenance supplement pack; Thermo Fisher Scientific) was mixed with Gibco™ Geltrex™ (Thermo Fischer Scientific) at the appropriate GeltrexTM protein concentration. Following recovery, medium was removed from cells and replaced with freshly prepared incubation medium. Cells were incubated overnight in a cell culture incubator (37° C./5% CO2).
(§2) The next day the incubation medium was prepared by combining the hepatocyte maintenance supplement pack with Williams Medium E. The medium was warmed to 37° C. 1000× dimethyl sulfoxide compound stocks of the compounds of the Examples were prepared to the desired concentrations. 10 mM compound stocks in dimethyl sulfoxide were diluted (1 μL to 1 mL CM4000; final concentration=10 μM). Overlay medium was aspirated and […] dose solution added to the desired labeled 96 well plate. Cells were then dosed with compound (10 μM) and prototypical induces at the targeted concentrations either 50 i.tM for omeprazole (Sigma 0104/lotBCBF-2161V) or 10 i.tM for rifampicin (Sigma R3501/lot 011M1159V). A negative control, probenecid, was dosed at 10 i.tM (Sigma P8761/lot 013K0148).
(§3) On day 3, RNA isolation was performed. All surfaces were cleaned using RNase RNAy. Total RNA was isolated using MagMAX Express 96 RNA Isolation System (Life Technologies, AM1830). Briefly, hepatocytes were washed once with 1X PBS (phosphate buffered saline). 145 μL of RNA Lysis Buffer was added to each well and each well was mixed by pipetting several times. Lysate was then transferred to a well of a 96 well Binding Plate. Samples were then mixed with 20 μL magnetic beads coming from the kit. RNA bound to beads was then captured by the magnetic tip manifold and beads were washed with the wash solution. Samples were treated with TURBOTmDNase. After TURBOTmDNase treatment, RNA was rebound to beads and washed with the provided wash buffer an additional two times. Beads are then dried, and RNA was eluted with 50 μL elution buffer. The eluted mRNA was transferred from the wells to RNase-free sealable microtiter plates and stored at -80° C. until use.
(§4) Following mRNA isolation, reverse transcription (RT) reactions were performed using TaqmanTm Reverse Transcription Reagents (ThermoFisher Scientific). RT master mix was prepared by mixing 2.5 μL 10× RT buffer, 5.5 μL 25 mM MgCl2, 5μL deoxyNTP mixture, 1.25 50 mM random hexamers, 0.5 μL 2× RNAse inhibitor, 0.625 μL multiscript RTase (50U/μL) and 0.625 μL water. An aliquot of RT mix (16 μL) and an aliquot of mRNA sample (9 μL) was added to each well of a 96-well plate. The SimpliAmpTM Thermal cycler PCR System VIIA7 from Applied Biosystems was used for reverse transcription under the following conditions: segment 1: 25° C. for 10 minutes; segment 2: 45° C. for 45 minutes; segment 3: 95° C. for 5 minutes; and segment 4: 4° C. hold; with 1 cycle for each segment. […]

[4] = tested on: CYP3A4 mRNA; assay: CYP3A4 Induction Assay (qPCR, human hepatocytes); assay type: in vitro ADME; conditions: cryopreserved human hepatocytes (plated), 10 μM compound, mRNA fold over vehicle (0.1% DMSO)
Description: as §1, §2, §3, §4

human MALT-1 protein, sequence (Q9UDY8 whole entry): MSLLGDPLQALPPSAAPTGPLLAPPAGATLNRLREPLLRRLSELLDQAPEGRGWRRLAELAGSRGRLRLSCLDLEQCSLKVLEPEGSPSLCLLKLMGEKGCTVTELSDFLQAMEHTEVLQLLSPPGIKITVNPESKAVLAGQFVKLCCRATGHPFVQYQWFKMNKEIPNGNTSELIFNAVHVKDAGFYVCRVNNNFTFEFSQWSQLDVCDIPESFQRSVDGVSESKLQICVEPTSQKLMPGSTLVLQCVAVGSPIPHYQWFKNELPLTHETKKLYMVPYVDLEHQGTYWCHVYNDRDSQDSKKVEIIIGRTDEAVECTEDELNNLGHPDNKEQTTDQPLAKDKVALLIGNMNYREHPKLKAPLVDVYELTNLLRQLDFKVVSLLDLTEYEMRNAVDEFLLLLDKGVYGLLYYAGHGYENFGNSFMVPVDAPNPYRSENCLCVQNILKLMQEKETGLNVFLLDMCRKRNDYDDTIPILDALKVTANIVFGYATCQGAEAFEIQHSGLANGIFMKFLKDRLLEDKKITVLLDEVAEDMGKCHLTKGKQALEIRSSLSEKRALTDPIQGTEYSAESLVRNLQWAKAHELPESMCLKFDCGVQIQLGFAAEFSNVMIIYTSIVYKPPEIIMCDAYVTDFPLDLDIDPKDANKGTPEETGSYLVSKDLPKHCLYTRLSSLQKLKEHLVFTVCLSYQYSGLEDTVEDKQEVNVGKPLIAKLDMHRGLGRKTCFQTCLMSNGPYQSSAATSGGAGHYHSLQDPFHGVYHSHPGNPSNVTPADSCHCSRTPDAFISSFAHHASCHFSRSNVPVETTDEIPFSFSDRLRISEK

Row | EC50 [1] | EC50 [2] | CYP3A4 % of positive control (%) [3] | fold induction at 1 day, 10 µM [4] | Compound
1 | 0.067 µM | 0.25 µM | (2.45) % | 1.16 | CO[C@@H](C)c1c(Nc2ccc([C@H](N(C)C(=O)C3CCN(C(=O)[C@@H](C)O)CC3)C(F)(F)F)cc2)cnc2sc(C)nc12 [Example 25, 1-[(2R)-2-hydroxypropanoyl]-N-methyl-N-{(1S)-2,2,2-trifluoro-1-[4-({7-[(1S)-1-methoxyethyl]-2-methyl[1,3]thiazolo [5,4-b]pyridin-6-yl}amino)phenyl]ethyl}piperidine-4-c arboxamide]
2 | 0.393 µM | 1.15 µM | (2.57) % | 1.17 | CO[C@@H](C)c1c(Nc2ccc([C@H](N(C)C(=O)C3CCN(C(=O)[C@H](C)O)CC3)C(F)(F)F)cc2)cnc2sc(C)nc12 [Example 26, 1-[(2S)-2-hydroxypropanoyl]-N-methyl-N-{(1S)-2,2,2-trifluoro-1-[4-({7-[(1S)-1-methoxyethyl]-2-methyl[1,3]thiazolo [5,4-b]pyridin-6-yl}amino)phenyl]ethyl}piperidine-4-c arboxamide]
3 | 0.07 µM | 0.41 µM | (7.55) % | 1.47 | CO[C@@H](C)c1c(Nc2ccc([C@H](N(C)C(=O)C3CCN(C(=O)[C@H](O)CO)CC3)C(F)(F)F)cc2)cnc2sc(C)nc12 [Example 27, 1-[(2R)-2,3-dihydroxypropanoyl]-N-methyl-N-{(1S)-2,2,2-trifluoro-1-[4-({7-[(1 S)-1-methoxyethyl]-2-methyl[1,3]thiazolo [5,4-b]pyridin-6-yl}amino)phenyl]ethyl}piperidine-4-carboxamide]
4 | 0.138 µM | 0.42 µM | (15.1) % | 2.24 | CO[C@@H](C)c1c(Nc2ccc([C@@H](C(F)F)N(C)C(=O)C3CCN(C(=O)CO)CC3)cc2)cnc2sc(C)nc12 [Example 28, N-{(1S)-2,2-difluoro-1-[4-({7-[(1S)-1-methoxyethyl]-2-methyl[1,3]thiazolo[5,4-b]pyridin-6-yl}amino)phenyl]ethyl}-1-(hydroxyacetyl)-N-methylpiperidine-4-carboxamide]
5 | 0.232 µM | 0.3 µM | (27.8) % | 3.29 | CO[C@@H](C)c1c(Nc2ccc([C@@H](C(F)F)N(C)C(=O)C3CCN(C(C)=O)CC3)cc2)cnc2sc(C)nc12 [Example 29, 1-acetyl-N-{(1S)-2,2-difluoro-1-[4-({7-[(1S)-1-methoxyethyl]-2-methyl[1,3]thiazolo[5,4-b]pyridin-6-yl}amino)phenyl]ethyl}-N-methylpiperidine-4-carboxamide]
6 | 0.082 µM | 0.71 µM | (5) % | 1.49 | CO[C@@H](C)c1c(Nc2ccc([C@H](N(C)C(=O)C3CCN(C(=O)[C@@H](O)CO)CC3)C(F)(F)F)cc2)cnc2sc(C)nc12 [Example 30, 1-[(25)-2,3-dihydroxypropanoyl]-N-methyl-N-{(1S)-2,2,2-trifluoro-1-[4-({7-[(1S)-1-methoxyethyl]-2-methyl[1,3]thiazolo[5,4-b]pyridin-6-yl}amino)phenyl]ethyl}piperidine-4-carboxamide]
7 | 0.082 µM | 0.44 µM | (4.87) % | 1.37 | CO[C@H](c1c(Nc2ccc([C@@H](C(F)F)N(C)C(=O)C3CCN(C(=O)CO)CC3)cc2)cnc2sc(C)nc12)C(F)F [Example 31, N-{(1S)-1-[4-({7-[(1R)-2,2-difluoro-1-methoxyethyl]-2-methyl[1,3]thiazolo[5,4-b]pyridin-6-yl}amino)phenyl]-2,2-difluoroethyl}-1-(hydroxyacetyl)-N-methylpiperidine-4-carboxamide]
8 | 0.113 µM | 0.25 µM | (2.56) % | 1.2 | CO[C@@H](c1c(Nc2ccc([C@H](N(C)C(=O)C3CCN(C(=O)CO)CC3)C(F)(F)F)cc2)cnc2sc(C)nc12)C(F)F [Example 32, N-{(1S)-1-[4({7-[(1S)-2,2-difluoro-1-methoxyethyl]-2-methyl[1,3]thiazolo [5,4-b]pyridin-6-yl}amino)phenyl]-2,2,2-trifluoroethyl}-1-(hydroxyacetyl)-N-methylpiperidine-4-carboxamide]
9 | 0.112 µM | 0.19 µM | (13) % | 2.11 | CO[C@H](C)c1c(Nc2ccc([C@H](N(C)C(=O)C3CCN(C(=O)CO)CC3)C(F)(F)F)cc2)cnc2sc(C)nc12 [Example 34, 1-(hydroxyacetyl)-N-methyl-N-1{(1S)-2,2,2-trifluoro-1-[4-({7-[(1R)-1-methoxyethyl]-2-methyl[1,3]thiazolo[5,4-b]pyridin-6-yl}amino)phenyl]ethyl}piperidine-4-carboxamide]
10 | 0.5 µM | 7.3 µM | (17) % | 2.45 | CO[C@H](C)c1c(Nc2ccc([C@H](N(C)C(=O)C3CCN(C(C)=O)CC3)C(F)(F)F)cc2)cnc2sc(C)nc12 [Example 35, 1-acetyl-N-methyl-N-{(1S)-2,2,2-trifluoro-1-[4-({7-[(1R)-1-methoxyethyl]-2-methyl[1,3]thiazolo [5,4-b]pyridin-6-yl}amino)phenyl]ethyl}piperidine-4-carboxamide]
11 | 0.048 µM | 0.27 µM | (14.4) % | 1.9 | CO[C@H](c1c(Nc2ccc([C@@H](C(F)F)N(C)C(=O)C3CCN(C(=O)CO)CC3)cc2)cnc2sc(C)nc12)C(F)(F)F [Example 36, N-{(1S)-2,2-difluoro-1-[4-({2-methyl-7-[(1R)-2,2,2-trifluoro-1-methoxyethyl][1,3]thiazolo [5,4-b]pyridin-6-yl}amino)phenyl]ethyl}-1-(hydroxyacetyl)-N-methylpiperidine-4-carboxamide]
12 | 0.06 µM | 0.21 µM | (19) % | 2.19 | CO[C@H](c1c(Nc2ccc([C@@H](C(F)F)N(C)C(=O)C3CCN(C(C)=O)CC3)cc2)cnc2sc(C)nc12)C(F)(F)F [Example 37, 1-acetyl-N-{(1S)-2,2-difluoro-1-[4-({2-methyl-7-[(1R)-2,2,2-trifluoro-1-methoxyethyl][1,3]thiazolo[5,4-b]pyridin-6-yl}amino)phenyl]ethyl}-N-methylpiperidine-4-carboxamide]
